Test results reported in ChEMBL document CHEMBL1938312, “Design and combinatorial synthesis of a novel kinase-focused library using click chemistry-based fragment assembly” (Bioorg Med Chem Lett, 2012).
Activity calls are given as the source filed them. The rule behind the calls is not given here.

Legend:
[1] = target: T1, Ephrin type-B receptor 4 (Homo sapiens) (UniProt P54760); assay: Inhibition of EPHB4 at 10 uM by colorimetric analysis
T1 sequence (whole entry): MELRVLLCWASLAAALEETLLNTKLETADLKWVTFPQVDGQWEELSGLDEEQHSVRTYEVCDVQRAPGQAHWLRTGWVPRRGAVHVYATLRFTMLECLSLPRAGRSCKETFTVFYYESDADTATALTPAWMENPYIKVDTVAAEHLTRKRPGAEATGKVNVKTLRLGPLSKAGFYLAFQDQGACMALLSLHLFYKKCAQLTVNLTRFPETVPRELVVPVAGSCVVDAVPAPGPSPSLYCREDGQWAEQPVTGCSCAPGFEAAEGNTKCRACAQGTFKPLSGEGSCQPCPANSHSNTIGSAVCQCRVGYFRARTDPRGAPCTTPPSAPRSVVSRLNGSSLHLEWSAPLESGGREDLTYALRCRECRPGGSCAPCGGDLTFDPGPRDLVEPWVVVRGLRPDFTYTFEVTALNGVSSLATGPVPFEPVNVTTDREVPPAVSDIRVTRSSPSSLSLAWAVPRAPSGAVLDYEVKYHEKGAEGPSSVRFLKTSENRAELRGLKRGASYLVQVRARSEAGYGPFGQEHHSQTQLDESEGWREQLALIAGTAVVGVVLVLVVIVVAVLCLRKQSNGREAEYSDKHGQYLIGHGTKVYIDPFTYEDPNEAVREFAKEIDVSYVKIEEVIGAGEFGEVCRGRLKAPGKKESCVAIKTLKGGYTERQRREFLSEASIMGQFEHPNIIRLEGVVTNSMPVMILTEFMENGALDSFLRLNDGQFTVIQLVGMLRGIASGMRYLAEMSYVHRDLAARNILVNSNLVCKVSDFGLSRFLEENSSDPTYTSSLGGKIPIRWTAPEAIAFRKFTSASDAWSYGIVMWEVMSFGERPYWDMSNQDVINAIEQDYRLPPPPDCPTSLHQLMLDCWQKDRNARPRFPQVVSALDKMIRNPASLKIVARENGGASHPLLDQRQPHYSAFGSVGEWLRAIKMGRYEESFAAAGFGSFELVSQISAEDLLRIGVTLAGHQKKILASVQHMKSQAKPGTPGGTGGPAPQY

[2] = target: Protein kinase C alpha type (Homo sapiens) (UniProt P17252); assay: Inhibition of PKCalpha at 10 uM by colorimetric analysis
[3] = target: Fibroblast growth factor receptor 1 (Homo sapiens) (UniProt P11362); assay: Inhibition of FGFR1 at 10 uM by colorimetric analysis
[4] = target: High affinity nerve growth factor receptor (Homo sapiens) (UniProt P04629); assay: Inhibition of TRKA at 10 uM by colorimetric analysis
[5] = target: Hepatocyte growth factor receptor (Homo sapiens) (UniProt P08581); assay: Inhibition of MET at 10 uM by colorimetric analysis
[6] = target: Glycogen synthase kinase-3 beta (Homo sapiens, UniProt P49841); assay: Inhibition of GSK3-beta at 10 uM by colorimetric analysis
[7] = target: Insulin-like growth factor 1 receptor (Homo sapiens) (UniProt P08069); assay: Inhibition of IGF1R at 10 uM by colorimetric analysis
[8] = target: Receptor-type tyrosine-protein kinase FLT3 (Homo sapiens) (UniProt P36888); assay: Inhibition of FLT3 at 10 uM by colorimetric analysis
[9] = target: Tyrosine-protein kinase ABL1 (Homo sapiens) (UniProt P00519); assay: Inhibition of Abl at 10 uM by colorimetric analysis
[10] = target: T2, Serine/threonine-protein kinase D2 (Homo sapiens) (UniProt Q9BZL6); assay: Inhibition of PKD2 at 10 uM by colorimetric analysis
T2 sequence (whole entry): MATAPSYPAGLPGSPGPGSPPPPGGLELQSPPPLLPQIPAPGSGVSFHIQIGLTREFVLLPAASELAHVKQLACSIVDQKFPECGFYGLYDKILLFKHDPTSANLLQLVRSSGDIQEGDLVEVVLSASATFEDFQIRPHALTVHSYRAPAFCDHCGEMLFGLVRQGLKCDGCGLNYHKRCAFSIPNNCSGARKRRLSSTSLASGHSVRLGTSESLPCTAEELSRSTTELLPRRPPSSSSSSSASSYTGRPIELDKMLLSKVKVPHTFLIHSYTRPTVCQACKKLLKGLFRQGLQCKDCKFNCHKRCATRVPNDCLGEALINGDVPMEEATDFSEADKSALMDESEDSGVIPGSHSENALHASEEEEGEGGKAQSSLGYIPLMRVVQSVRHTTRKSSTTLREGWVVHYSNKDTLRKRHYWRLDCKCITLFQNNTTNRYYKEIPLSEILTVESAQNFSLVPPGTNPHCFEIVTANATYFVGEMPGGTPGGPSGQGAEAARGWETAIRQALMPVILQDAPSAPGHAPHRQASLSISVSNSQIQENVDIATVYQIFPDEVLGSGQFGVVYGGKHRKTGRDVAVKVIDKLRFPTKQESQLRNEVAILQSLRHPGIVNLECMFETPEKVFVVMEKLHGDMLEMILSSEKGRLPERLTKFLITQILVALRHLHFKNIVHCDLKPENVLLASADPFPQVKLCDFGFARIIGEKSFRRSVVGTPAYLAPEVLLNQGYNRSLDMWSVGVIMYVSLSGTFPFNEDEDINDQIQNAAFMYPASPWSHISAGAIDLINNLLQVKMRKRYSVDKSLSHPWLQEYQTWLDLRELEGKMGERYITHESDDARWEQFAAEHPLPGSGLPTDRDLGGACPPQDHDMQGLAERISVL

[11] = target: Cyclin-dependent kinase 2/cyclin A (Homo sapiens) (UniProt P24941+P20248+P78396); assay: Inhibition of CDK2/CycA2 at 10 uM by colorimetric analysis; type: protein-complex assay
[12] = target: T3, Aurora kinase A (Homo sapiens) (UniProt O14965); assay: Inhibition of Aurora A at 10 uM by colorimetric analysis
T3 sequence (whole entry): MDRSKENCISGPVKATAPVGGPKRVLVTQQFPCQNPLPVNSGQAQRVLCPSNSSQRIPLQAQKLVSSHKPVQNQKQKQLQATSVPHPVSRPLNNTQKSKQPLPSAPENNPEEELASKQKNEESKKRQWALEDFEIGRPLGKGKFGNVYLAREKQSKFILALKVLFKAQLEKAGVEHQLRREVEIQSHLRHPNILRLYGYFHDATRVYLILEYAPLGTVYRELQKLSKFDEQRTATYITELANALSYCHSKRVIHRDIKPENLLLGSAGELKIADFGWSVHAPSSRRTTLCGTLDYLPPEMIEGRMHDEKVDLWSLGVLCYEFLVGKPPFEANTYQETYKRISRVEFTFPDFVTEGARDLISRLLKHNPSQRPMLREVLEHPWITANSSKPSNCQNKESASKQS

Chain of Fibroblast growth factor receptor 1 (Homo sapiens) (P11362 22-822 limits assumed): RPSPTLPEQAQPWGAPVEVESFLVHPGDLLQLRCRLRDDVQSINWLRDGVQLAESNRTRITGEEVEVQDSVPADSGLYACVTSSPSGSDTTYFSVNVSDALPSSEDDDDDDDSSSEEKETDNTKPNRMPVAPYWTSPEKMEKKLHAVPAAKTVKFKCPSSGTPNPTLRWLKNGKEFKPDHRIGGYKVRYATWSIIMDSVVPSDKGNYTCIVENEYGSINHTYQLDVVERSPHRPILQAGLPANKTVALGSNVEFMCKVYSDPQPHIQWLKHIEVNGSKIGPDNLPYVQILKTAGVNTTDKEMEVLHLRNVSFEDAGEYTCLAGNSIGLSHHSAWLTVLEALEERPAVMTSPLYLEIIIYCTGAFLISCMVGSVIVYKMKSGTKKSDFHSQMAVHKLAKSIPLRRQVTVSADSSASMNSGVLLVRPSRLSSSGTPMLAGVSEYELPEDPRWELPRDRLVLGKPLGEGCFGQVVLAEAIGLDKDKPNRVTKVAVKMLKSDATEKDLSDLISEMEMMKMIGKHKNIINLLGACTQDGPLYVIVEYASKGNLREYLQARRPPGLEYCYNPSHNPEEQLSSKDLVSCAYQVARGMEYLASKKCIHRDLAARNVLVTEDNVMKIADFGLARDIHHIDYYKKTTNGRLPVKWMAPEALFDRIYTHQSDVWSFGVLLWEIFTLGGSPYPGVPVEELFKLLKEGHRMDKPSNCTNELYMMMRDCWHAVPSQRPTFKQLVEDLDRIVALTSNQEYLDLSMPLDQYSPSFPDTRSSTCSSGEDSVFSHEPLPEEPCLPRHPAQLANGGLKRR
Chain of High affinity nerve growth factor receptor (Homo sapiens) (P04629 33-796 limits assumed): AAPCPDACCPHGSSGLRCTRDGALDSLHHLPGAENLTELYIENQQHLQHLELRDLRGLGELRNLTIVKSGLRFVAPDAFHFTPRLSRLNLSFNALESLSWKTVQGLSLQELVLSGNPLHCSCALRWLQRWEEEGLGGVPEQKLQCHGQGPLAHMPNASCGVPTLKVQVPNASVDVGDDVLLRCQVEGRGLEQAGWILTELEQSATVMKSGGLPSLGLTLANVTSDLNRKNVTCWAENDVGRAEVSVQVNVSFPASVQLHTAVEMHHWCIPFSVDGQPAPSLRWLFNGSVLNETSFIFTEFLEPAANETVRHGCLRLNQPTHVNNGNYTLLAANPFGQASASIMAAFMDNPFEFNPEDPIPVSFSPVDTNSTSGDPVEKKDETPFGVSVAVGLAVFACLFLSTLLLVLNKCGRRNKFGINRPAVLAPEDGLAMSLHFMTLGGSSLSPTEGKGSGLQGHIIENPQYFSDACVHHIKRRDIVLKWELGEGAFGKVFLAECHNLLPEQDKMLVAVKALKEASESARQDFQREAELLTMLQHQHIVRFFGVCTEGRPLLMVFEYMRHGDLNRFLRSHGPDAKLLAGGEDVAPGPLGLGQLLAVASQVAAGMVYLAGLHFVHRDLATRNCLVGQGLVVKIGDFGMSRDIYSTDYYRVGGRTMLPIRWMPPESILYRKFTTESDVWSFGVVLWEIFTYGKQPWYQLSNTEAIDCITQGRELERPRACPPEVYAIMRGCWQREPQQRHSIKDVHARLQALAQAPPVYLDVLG
Chain of Insulin-like growth factor 1 receptor (Homo sapiens) (P08069 31-736 limits assumed): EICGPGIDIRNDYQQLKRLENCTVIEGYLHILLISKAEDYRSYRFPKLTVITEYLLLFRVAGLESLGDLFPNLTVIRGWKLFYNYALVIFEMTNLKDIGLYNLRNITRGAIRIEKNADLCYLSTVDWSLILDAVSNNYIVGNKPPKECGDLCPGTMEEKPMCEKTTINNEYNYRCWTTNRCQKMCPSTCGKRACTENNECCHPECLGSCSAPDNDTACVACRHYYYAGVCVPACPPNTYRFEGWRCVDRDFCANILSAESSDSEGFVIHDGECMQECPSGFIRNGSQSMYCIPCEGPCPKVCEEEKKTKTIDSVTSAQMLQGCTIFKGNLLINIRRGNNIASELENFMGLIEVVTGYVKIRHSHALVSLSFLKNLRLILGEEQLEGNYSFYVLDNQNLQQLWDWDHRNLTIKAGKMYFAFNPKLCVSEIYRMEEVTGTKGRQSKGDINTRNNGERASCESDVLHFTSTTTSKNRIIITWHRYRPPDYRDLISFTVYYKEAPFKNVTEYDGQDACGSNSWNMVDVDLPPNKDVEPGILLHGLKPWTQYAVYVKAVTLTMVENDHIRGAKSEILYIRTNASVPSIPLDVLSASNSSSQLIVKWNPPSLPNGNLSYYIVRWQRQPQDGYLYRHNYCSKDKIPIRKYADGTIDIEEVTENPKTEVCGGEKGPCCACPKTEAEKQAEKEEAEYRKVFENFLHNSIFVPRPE
Chain of Insulin-like growth factor 1 receptor (Homo sapiens) (P08069 741-1367 limits assumed): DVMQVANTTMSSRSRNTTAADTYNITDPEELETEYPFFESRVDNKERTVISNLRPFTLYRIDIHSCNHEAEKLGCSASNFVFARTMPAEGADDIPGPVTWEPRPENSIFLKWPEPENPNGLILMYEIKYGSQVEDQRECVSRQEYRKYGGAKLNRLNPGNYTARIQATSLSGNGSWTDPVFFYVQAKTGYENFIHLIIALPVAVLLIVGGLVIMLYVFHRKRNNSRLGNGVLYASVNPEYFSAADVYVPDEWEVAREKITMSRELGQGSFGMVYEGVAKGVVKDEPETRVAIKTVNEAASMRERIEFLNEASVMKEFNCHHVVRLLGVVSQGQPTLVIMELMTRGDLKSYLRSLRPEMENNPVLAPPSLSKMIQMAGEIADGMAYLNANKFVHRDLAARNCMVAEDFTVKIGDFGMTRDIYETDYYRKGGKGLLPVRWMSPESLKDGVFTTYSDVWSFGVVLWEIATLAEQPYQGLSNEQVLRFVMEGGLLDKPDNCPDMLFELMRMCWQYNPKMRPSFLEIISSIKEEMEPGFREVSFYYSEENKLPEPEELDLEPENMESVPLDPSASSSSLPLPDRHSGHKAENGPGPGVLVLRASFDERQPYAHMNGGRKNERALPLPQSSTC
Chain of Receptor-type tyrosine-protein kinase FLT3 (Homo sapiens) (P36888 whole entry): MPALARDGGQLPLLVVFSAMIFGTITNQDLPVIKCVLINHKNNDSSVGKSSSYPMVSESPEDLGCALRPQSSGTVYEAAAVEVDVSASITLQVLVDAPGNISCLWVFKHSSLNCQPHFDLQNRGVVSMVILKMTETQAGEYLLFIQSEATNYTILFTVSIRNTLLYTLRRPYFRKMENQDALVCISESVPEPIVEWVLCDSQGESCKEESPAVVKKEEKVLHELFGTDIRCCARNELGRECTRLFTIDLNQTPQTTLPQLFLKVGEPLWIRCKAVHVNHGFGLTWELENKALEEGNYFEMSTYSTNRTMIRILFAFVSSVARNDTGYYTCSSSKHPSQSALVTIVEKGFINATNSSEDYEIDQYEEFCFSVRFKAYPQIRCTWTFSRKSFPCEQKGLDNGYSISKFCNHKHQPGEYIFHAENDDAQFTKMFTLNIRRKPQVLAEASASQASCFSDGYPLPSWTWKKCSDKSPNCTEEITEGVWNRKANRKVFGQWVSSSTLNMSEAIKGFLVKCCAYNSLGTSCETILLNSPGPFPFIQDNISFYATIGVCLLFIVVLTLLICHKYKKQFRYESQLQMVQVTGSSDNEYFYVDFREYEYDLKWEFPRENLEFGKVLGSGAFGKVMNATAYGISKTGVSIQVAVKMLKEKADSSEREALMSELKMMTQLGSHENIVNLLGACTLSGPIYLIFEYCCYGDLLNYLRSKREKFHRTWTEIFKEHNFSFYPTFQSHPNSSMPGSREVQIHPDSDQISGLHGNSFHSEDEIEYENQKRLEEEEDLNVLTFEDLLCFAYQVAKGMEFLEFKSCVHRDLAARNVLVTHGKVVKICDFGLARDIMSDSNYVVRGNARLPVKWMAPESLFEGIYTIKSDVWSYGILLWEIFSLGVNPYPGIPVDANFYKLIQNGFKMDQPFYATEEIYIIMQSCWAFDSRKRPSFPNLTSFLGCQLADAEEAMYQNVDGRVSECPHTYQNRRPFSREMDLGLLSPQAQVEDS
Chain of Glycogen synthase kinase-3 beta (P49841 whole entry, looked up): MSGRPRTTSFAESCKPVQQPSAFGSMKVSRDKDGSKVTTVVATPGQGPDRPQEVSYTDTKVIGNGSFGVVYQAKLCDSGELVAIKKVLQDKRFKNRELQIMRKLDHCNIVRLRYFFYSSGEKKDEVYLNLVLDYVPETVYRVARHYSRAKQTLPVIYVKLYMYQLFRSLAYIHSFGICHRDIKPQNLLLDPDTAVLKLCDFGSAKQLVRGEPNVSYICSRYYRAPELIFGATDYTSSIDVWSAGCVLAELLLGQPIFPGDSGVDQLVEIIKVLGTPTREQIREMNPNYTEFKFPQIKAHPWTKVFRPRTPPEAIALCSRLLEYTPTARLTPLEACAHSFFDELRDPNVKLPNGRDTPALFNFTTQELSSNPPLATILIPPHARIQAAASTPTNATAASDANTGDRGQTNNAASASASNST

| Compound | inhibition [1] | inhibition [2] | inhibition [3] | inhibition [4] | inhibition [5] | inhibition [6] | inhibition [7] | inhibition [8] | inhibition [9] | inhibition [10] | inhibition [11] | inhibition [12] |
| --- | --- | --- | --- | --- | --- | --- | --- | --- | --- | --- | --- | --- |
| Clc1cccc(-n2nncc2-c2ccncc2)c1 | inactive | Active | inactive | inactive | inactive | Active | inactive | Active | inactive | Active | Active | Active |
| Clc1cccc(-n2cc(-c3ccncc3)nn2)c1 | inactive | Active | inactive | inactive | inactive | Active | inactive | Active | inactive | Active | Active | Active |
| Clc1ccc(-n2cc(-c3ccncc3)nn2)cc1 | inactive | Active | inactive | inactive | inactive | Active | inactive | Active | inactive | Active | Active | Active |
| Clc1ccc(-n2nncc2-c2ccncc2)cc1 | inactive | Active | inactive | inactive | inactive | Active | inactive | Active | inactive | Active | Active | Active |
